Measurements: ChEMBL document CHEMBL1149767, “Structural and biological studies of mononuclear palladium(II) complexes containing N-substituted thiosemicarbazones” (2008)

Assays:
Format in all cases: functional
[1] = system: Vibrio cholerae; assay: Antibacterial activity against Vibrio cholerae assessed as diameter of inhibition zone at 0.25% after 24 hrs; parameters: scale not given: the % may be the effect or the level left
[2] = system: Staphylococcus aureus; assay: Antibacterial activity against Staphylococcus aureus assessed as diameter of inhibition zone at 0.25% after 24 hrs
[3] = system: Staphylococcus aureus; assay: Antibacterial activity against Staphylococcus aureus assessed as diameter of inhibition zone at 2.0% after 24 hrs
[4] = system: Escherichia coli; assay: Antibacterial activity against Escherichia coli assessed as diameter of inhibition zone at 1.0% after 24 hrs
[5] = system: Staphylococcus aureus; assay: Antibacterial activity against Staphylococcus aureus assessed as diameter of inhibition zone at 0.5% after 24 hrs
[6] = system: Vibrio cholerae; assay: Antibacterial activity against Vibrio cholerae assessed as diameter of inhibition zone at 0.5% after 24 hrs; parameters: scale not given: the % may be the effect or the level left
[7] = system: Pseudomonas aeruginosa; assay: Antibacterial activity against Pseudomonas aeruginosa assessed as diameter of inhibition zone at 2.0% after 24 hrs
[8] = system: Pseudomonas aeruginosa; assay: Antibacterial activity against Pseudomonas aeruginosa assessed as diameter of inhibition zone at 0.25% after 24 hrs
[9] = system: Pseudomonas aeruginosa; assay: Antibacterial activity against Pseudomonas aeruginosa assessed as diameter of inhibition zone at 0.5% after 24 hrs
[10] = system: Staphylococcus aureus; assay: Antibacterial activity against Staphylococcus aureus assessed as diameter of inhibition zone at 1.0% after 24 hrs
[11] = system: Escherichia coli; assay: Antibacterial activity against Escherichia coli assessed as diameter of inhibition zone at 2.0% after 24 hrs
[12] = system: Vibrio cholerae; assay: Antibacterial activity against Vibrio cholerae assessed as diameter of inhibition zone at 1.0% after 24 hrs; parameters: scale not given: the % may be the effect or the level left
[13] = system: Vibrio cholerae; assay: Antibacterial activity against Vibrio cholerae assessed as diameter of inhibition zone at 2.0% after 24 hrs; parameters: scale not given: the % may be the effect or the level left
[14] = system: Escherichia coli; assay: Antibacterial activity against Escherichia coli assessed as diameter of inhibition zone at 0.25% after 24 hrs
[15] = system: Escherichia coli; assay: Antibacterial activity against Escherichia coli assessed as diameter of inhibition zone at 0.5% after 24 hrs
[16] = system: Pseudomonas aeruginosa; assay: Antibacterial activity against Pseudomonas aeruginosa assessed as diameter of inhibition zone at 1.0% after 24 hrs

Structure (SMILES) | Activity [1] | inhibition zone (IZ) [2] | inhibition zone (IZ) [3] | inhibition zone (IZ) [4] | inhibition zone (IZ) [5] | Activity [6] | inhibition zone (IZ) [7] | inhibition zone (IZ) [8] | inhibition zone (IZ) [9] | inhibition zone (IZ) [10] | inhibition zone (IZ) [11] | Activity [12] | Activity [13] | inhibition zone (IZ) [14] | inhibition zone (IZ) [15] | inhibition zone (IZ) [16]
CN[C@@H]1[C@H](O[C@H]2[C@H](O[C@H]3[C@H](O)[C@@H](O)[C@H](N=C(N)N)[C@@H](O)[C@@H]3N=C(N)N)O[C@@H](C)[C@]2(O)C=O)O[C@@H](CO)[C@H](O)[C@H]1O [STREPTOMYCIN] | 14% | 17 mm | 25 mm | 22 mm | 19 mm | 17% | 24 mm | 18 mm | 21 mm | 23 mm | 25 mm | 20% | 22% | 18 mm | 20 mm | 23 mm
Oc1ccccc1/C=N/NC(=S)Nc1ccccc1 | 4% |  | 9 mm | 8 mm | 6 mm | 6% | 9 mm |  | 5 mm | 8 mm |  | 8% | 9% | 5 mm | 7 mm | 7 mm
